Measurements: patent US20090082322A1, “Gender Differences in Experimental Aortic Aneurysm Formation” (THE REGENTS OF THE UNIVERSITY OF MICHIGAN, priority 2004, published 2009)

Key:
MMP-2 = MMP-2 activity in media of IL-1β stimulated aortic explants from pre-treated male rats; assay type: in vivo, rat
Experimental: Experiment III: Male rats underwent sustained 17-β-estradiol exposure using extended-release, subcutaneously implanted pellets prior to sacrifice and aortic explanation. The explants were stimulated with IL-1β, and MMP-2 activity in the conditioned media was then determined.

MMP-9 = assay: Aortic MMP-9 immunohistochemistry, ED-1 colocalization and quantitative PCR; assay type: in vivo, Sprague-Dawley rats
Excerpt: In other experiments, male rats were randomized to implantation of an estrogen pellet or sham implantation (n=13, each). The former involved the subcutaneous implantation of a 21-day slow-release 0.1-mg 17-β-estradiol pellet (Innovative Research of America, Sarasota, Fla.) in the posterior neck. Sham rats underwent the same implantation procedure without insertion of any pellet. This particular estradiol dose results in serum estradiol levels at 2 to 3 weeks of 44.7±6.1 pg/mL compared with 15.0±2.2 pg/mL in control rats (P<0.05). Rat aortas from both groups were subjected to elastase perfusion 5 days later. The aortas were then removed for study 7 or 14 days after elastase perfusion.
Immunohistochemistry was undertaken after deparaffinization, rehydration, and unmasking using Trilogy (Cell Marque Corp, Hot Springs, Ariz.) in a Princess model pressure cooker (Cell Marque). Endogenous peroxidase activity was then blocked using 3% hydrogen peroxide in methanol. To help ensure that rejection was not occurring in elastase-perfused or transplanted animals, anti-T lymphocyte immunohistochemistry was performed. Specifically, antirat CD3 monoclonal antibody (BD Pharmingen, San Diego, Calif.) was used as the primary antibody and mouse IgG Vectastain (Vector Laboratories, Burlingame, Calif.) as the secondary antibody. Rat spleen was used as the positive control for anti-CD3 staining. […]
Expression of MMP-9 and β-actin mRNA was determined using quantitative PCR. […] The resultant cDNA was amplified by Taq Polymerase (Promega, Madison, Wis.) in a SmartCycler quantitative PCR system (Cepheid, Sunnyvale, Calif.). […]
MMP-9 forward primer, CGCCAACTATGACCAGGATA (SEQ ID NO: 1); MMP-9 reverse primer, GTT GCC CCC AGT TAC AGT (SEQ ID NO: 2); β-actin forward primer, ATGGGTCAGAAGGATTCCTATGTG (SEQ ID NO: 3); β-actin reverse primer, CTTCATGAGGTAGTCAGTCAGGTC (SEQ ID NO: 4). […] Quantification of mRNA levels used ΔCt values, calculated by the formula: […]
Expression of the target gene in ratio to β-actin expression was calculated by the formula: […]

[1] = system: ED-1-positive macrophages / elastin in aortic wall; assay: Histology and ED-1 macrophage immunohistochemistry of elastase-perfused aortas; assay type: in vivo, Sprague-Dawley rats
Excerpt: In other experiments, male rats were randomized to implantation of an estrogen pellet or sham implantation (n=13, each). The former involved the subcutaneous implantation of a 21-day slow-release 0.1-mg 17-β-estradiol pellet (Innovative Research of America, Sarasota, Fla.) in the posterior neck. Sham rats underwent the same implantation procedure without insertion of any pellet. This particular estradiol dose results in serum estradiol levels at 2 to 3 weeks of 44.7±6.1 pg/mL compared with 15.0±2.2 pg/mL in control rats (P<0.05). Rat aortas from both groups were subjected to elastase perfusion 5 days later. The aortas were then removed for study 7 or 14 days after elastase perfusion. All excised aortas were fixed in 10% formalin for 18 hours, followed by immersion in 70% ethanol for 24 hours. Aortas were then imbedded in paraffin and 4-μm sections were prepared with hematoxylin and eosin and Verhoeff-Van Gieson stains. Immunohistochemistry was undertaken after deparaffinization, rehydration, and unmasking using Trilogy (Cell Marque Corp, Hot Springs, Ariz.) in a Princess model pressure cooker (Cell Marque). Endogenous peroxidase activity was then blocked using 3% hydrogen peroxide in methanol. To help ensure that rejection was not occurring in elastase-perfused or transplanted animals, anti-T lymphocyte immunohistochemistry was performed. […]

AAAs = conditions: apolipoprotein E-deficient murine model; cited from earlier work

## C[C@]12CC[C@@H]3c4ccc(O)cc4CC[C@H]3[C@@H]1CC[C@@H]2O [17-β-estradiol]
MMP-2; male rats pre-treated with extended-release s.c. pellets, explants stimulated with IL-1β, control 4.35×10^5, P=0.002
  MMP-2 activity in the media of whole-aortic explants: 2.0×10^5 O.D./mg protein
MMP-2; male rats pre-treated, vs control
  decrease in MMP-2 activity in the media of whole-aortic explants: 2 fold
MMP-9; immunohistochemistry, estradiol treated rats compared with sham rats
  aortic MMP-9 staining: less evident
MMP-9; quantitative PCR normalized to β-actin, 7 days after elastase perfusion, sham 0.12±0.04, P=0.11
  aortic MMP-9 mRNA expression: 0.0017±0.004 mRNA copies
MMP-9; rats treated with estradiol compared with sham rats
  colocalization of aortic ED-1 and MMP-9: less prominently stained cells
[1]; estradiol treated male rats' aortas vs sham
  elastin fragmentation: less prominent
[1]; male rats receiving estradiol, sham 5.2±0.5, P=0.0006
  ED-1-positive cell counts: 1.8±0.3 cells/HPF
AAAs
  development of AAAs: attenuate the development of AAAs
